Test results taken from patent US8609610B2, “Inhibitors of the trypsin-like site of the proteasome and methods of use thereof” (Trustees of Dartmouth College, priority 2011, dated 2013).

Assays:
Assay type in all cases: cell-based
[1] = biological target: T1, chymotrypsin-like sites (β5) of proteasome in MM cells (Homo sapiens, UniProt P28074); assay: PROTEASOMEGLO assay of proteasome inhibition in MM cells
T1 sequence (P28074 60-263): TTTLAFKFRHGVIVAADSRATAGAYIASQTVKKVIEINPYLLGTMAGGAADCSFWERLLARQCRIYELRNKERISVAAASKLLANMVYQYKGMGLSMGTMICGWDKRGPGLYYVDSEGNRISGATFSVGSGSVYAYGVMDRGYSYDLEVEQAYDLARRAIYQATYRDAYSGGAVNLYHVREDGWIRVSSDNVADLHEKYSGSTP
Protocol: (§1) Proteasome inhibition in MM cells was measured with luminogenic substrates using PROTEASOMEGLO assay (Promega). […] An aliquot of culture was pelleted and medium was removed and replaced with PBS. The resulting cell suspension was mixed with luminogenic substrates in the manufacturer-provided lysis/assay buffer. After 3 minutes mixing on an orbital shaker, the plate was incubated in the dark for additional 17 minutes, followed by the measurements of the luminescence, performed in triplicate for each substrate/data point. Data were analyzed as for purified proteasomes. […] Cells (1×10^6 per well of a 6-well plate) were incubated with the inhibitors for 4 hours at 37° C. and this was followed by a 2 hour incubation with 5 μM BODIPY-TMR-epoxomicin. Subsequently, the medium was removed and the cells were washed with PBS and harvested. […] The supernatant was collected and the protein concentration was determined by the Bradford assay, and used to normalize gel loading. The samples were analysed by SDS-PAGE and fluorescent densitometry as described for competition experiment in cell lysates. IC50 values were calculated from three independent experiments using […] PRISM software.

[2] = biological target: T2, trypsin-like sites (β2) of proteasome in MM cells (Homo sapiens, UniProt Q99436); assay: as above
T2 construct: endogenous in cells; host or cells: NCI-H929, RPMI-8226 and other MM cell lines
T2 sequence (Q99436 44-277): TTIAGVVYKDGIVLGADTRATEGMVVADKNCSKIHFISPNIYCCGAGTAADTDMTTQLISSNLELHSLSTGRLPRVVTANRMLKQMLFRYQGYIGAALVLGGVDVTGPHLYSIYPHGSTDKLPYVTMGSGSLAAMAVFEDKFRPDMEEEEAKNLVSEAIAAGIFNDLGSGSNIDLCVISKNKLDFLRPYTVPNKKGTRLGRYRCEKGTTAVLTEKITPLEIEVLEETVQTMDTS
Protocol: as §1

[3] = biological target: T3, caspase-like sites (β1) of proteasome in MM cells (Homo sapiens, UniProt P28072+Q99436); assay: as above
T3 sequence (P28072 35-239): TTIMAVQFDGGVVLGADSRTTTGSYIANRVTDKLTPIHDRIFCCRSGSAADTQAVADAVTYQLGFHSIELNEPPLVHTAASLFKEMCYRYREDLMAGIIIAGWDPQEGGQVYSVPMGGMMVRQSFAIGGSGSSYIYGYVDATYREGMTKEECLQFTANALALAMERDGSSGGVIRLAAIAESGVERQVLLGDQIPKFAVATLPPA
T3 sequence (Q99436 44-277): T2 sequence (Q99436 44-277)

KMS-12-BM cells = assay: ALAMAR BLUE cell viability assay; settings: then 48 h
Protocol: (§2) RPMI-8226 and NCI-H929 cells were cultured in RPMI-1640 supplemented with 10% fetal bovine serum, penicillin, streptomycin, and plasmocin in 5% CO2 humidified incubator. HEK-293T cells were cultured in DMEM containing 10% fetal calf serum, 10 units/mL penicillin, and 10 μg/mL streptomycin in a 7% CO2 humidified incubator. Viability of multiple myeloma cells was measured with ALAMAR BLUE mitochondrial dye conversion assay. Viability of peripheral blood mononuclear cells (PBMNCs) was measured using CELL TITER-GLO luminescent cell viability assay (Promega), which is based on quantification of ATP present in the cells. Caspase-3/7 activity was measured using APO-ONE 3/7 homogeneous assay (Promega).

KMS-18 cells = assay: ALAMAR BLUE cell viability assay; settings: then 48 h
Protocol: as §2

MM1.R cells = assay: ALAMAR BLUE cell viability assay; settings: LU-005 0.004 μM 1 h, then 48 h
Protocol: as §2

NCI-H929 cells = assay: ALAMAR BLUE cell viability assay; settings: NCI-H929, then 48 h
Protocol: as §2

RPMI-8226 cells = assay: ALAMAR BLUE cell viability assay; settings: RPMI-8226, then 48 h
Protocol: as §2

## CC(C)C[C@H](NC(=O)[C@H](Cc1c(F)c(F)c(F)c(F)c1F)NC(=O)[C@H](Cc1ccccc1)NC(=O)[C@H](Cc1ccccc1)N=[N+]=[N-])C(=O)[C@@]1(C)CO1 [LU-005]
[1]; KMS-12-BM, LU-005 0.037 μM 1 h
  Inhibition of active sites β5: 48 ± 9 % control
[1]; KMS-12-BM, LU-005 0.33 μM 1 h
  Inhibition of active sites β5: 81 ± 3 % control
[1]; KMS-12-BM, LU-005 1.0 μM 1 h
  Inhibition of active sites β5: 95 ± 2 % control
[1]; KMS-18, LU-005 0.037 μM 1 h
  Inhibition of active sites β5: 14 % control
[1]; KMS-18, LU-005 0.33 μM 1 h
  Inhibition of active sites β5: 69 ± 8 % control
[1]; KMS-18, LU-005 1.0 μM 1 h
  Inhibition of active sites β5: 85 ± 6 % control
[1]; KMS-18, LU-005 3.0 μM 1 h
  Inhibition of active sites β5: 94 ± 4 % control
[1]; KMS-18, LU-005 9.0 μM 1 h
  Inhibition of active sites β5: 97 ± 1 % control
[1]; MM1.R, LU-005 0.004 μM 1 h
  Inhibition of active sites β5: 17 ± 4 % control
[1]; NCI-H929, LU-005 0.0014 μM 1 h
  Inhibition of active sites β5: 22 ± 4 % control
[1]; NCI-H929, LU-005 0.004 μM 1 h
  Inhibition of active sites β5: 22 ± 11 % control
[1]; RPMI-8226, LU-005 0.037 μM 1 h
  Inhibition of active sites β5: 45 ± 26 % control
[1]; RPMI-8226, LU-005 0.33 μM 1 h
  Inhibition of active sites β5: 62 ± 32 % control
[1]; RPMI-8226, LU-005 1.0 μM 1 h
  Inhibition of active sites β5: 82 ± 16 % control
[2]; KMS-12-BM, LU-005 0.037 μM 1 h
  Inhibition of active sites β2: −12 ± 1 % control
[2]; KMS-12-BM, LU-005 0.33 μM 1 h
  Inhibition of active sites β2: 3 ± 18 % control
[2]; KMS-12-BM, LU-005 1.0 μM 1 h
  Inhibition of active sites β2: 29 ± 7 % control
[2]; KMS-18, LU-005 0.037 μM 1 h
  Inhibition of active sites β2: −13 ± 13 % control
[2]; KMS-18, LU-005 0.33 μM 1 h
  Inhibition of active sites β2: 24 ± 6 % control
[2]; KMS-18, LU-005 1.0 μM 1 h
  Inhibition of active sites β2: 38 ± 5 % control
[2]; KMS-18, LU-005 3.0 μM 1 h
  Inhibition of active sites β2: 50 ± 14 % control
[2]; KMS-18, LU-005 9.0 μM 1 h
  Inhibition of active sites β2: 62 ± 5 % control
[2]; MM1.R, LU-005 0.004 μM 1 h
  Inhibition of active sites β2: 6.5 ± 0.5 % control
[2]; NCI-H929, LU-005 0.0014 μM 1 h
  Inhibition of active sites β2: −9 ± 2 % control
[2]; NCI-H929, LU-005 0.004 μM 1 h
  Inhibition of active sites β2: −13 ± 7 % control
[2]; RPMI-8226, LU-005 0.037 μM 1 h
  Inhibition of active sites β2: 1 ± 17 % control
[2]; RPMI-8226, LU-005 0.33 μM 1 h
  Inhibition of active sites β2: 13 ± 11 % control
[2]; RPMI-8226, LU-005 1.0 μM 1 h
  Inhibition of active sites β2: 22 ± 19 % control
[3]; KMS-12-BM, LU-005 0.037 μM 1 h
  Inhibition of active sites β1: −1 ± 5 % control
[3]; KMS-12-BM, LU-005 0.33 μM 1 h
  Inhibition of active sites β1: 6 ± 12 % control
[3]; KMS-12-BM, LU-005 1.0 μM 1 h
  Inhibition of active sites β1: 11 ± 16 % control
[3]; KMS-18, LU-005 0.037 μM 1 h
  Inhibition of active sites β1: 0 ± 8 % control
[3]; KMS-18, LU-005 0.33 μM 1 h
  Inhibition of active sites β1: 29 ± 7 % control
[3]; KMS-18, LU-005 1.0 μM 1 h
  Inhibition of active sites β1: 32 ± 4 % control
[3]; KMS-18, LU-005 3.0 μM 1 h
  Inhibition of active sites β1: 39 ± 12 % control
[3]; KMS-18, LU-005 9.0 μM 1 h
  Inhibition of active sites β1: 42 ± 2 % control
[3]; MM1.R, LU-005 0.004 μM 1 h
  Inhibition of active sites β1: 6 ± 8 % control
[3]; NCI-H929, LU-005 0.0014 μM 1 h
  Inhibition of active sites β1: −14 ± 15 % control
[3]; NCI-H929, LU-005 0.004 μM 1 h
  Inhibition of active sites β1: −7 ± 10 % control
[3]; RPMI-8226, LU-005 0.037 μM 1 h
  Inhibition of active sites β1: 16 ± 7 % control
[3]; RPMI-8226, LU-005 0.33 μM 1 h
  Inhibition of active sites β1: 37 ± 15 % control
[3]; RPMI-8226, LU-005 1.0 μM 1 h
  Inhibition of active sites β1: 37 ± 4 % control
KMS-12-BM cells; LU-005 0.037 μM 1 h
  Viability +NC-002 & NC-001: 50 ± 2 % control
  Viability +NC-022: 90 ± 5 % control
  Viability −NC-022: 89 ± 8 % control
KMS-12-BM cells; LU-005 0.33 μM 1 h
  Viability +NC-002 & NC-001: 2 ± 0 % control
  Viability +NC-022: 12 ± 2 % control
  Viability −NC-022: 80 ± 9 % control
KMS-12-BM cells; LU-005 1.0 μM 1 h
  Viability +NC-002 & NC-001: 1 ± 0 % control
  Viability +NC-022: 1.5 ± 0.1 % control
  Viability −NC-022: 27 ± 6 % control
KMS-18 cells; LU-005 0.037 μM 1 h
  Viability +NC-002 & NC-001: 79 ± 14 % control
  Viability +NC-022: 104 ± 3 % control
  Viability −NC-022: 108 ± 1 % control
KMS-18 cells; LU-005 0.33 μM 1 h
  Viability +NC-002 & NC-001: 33 ± 20 % control
  Viability +NC-022: 106 ± 16 % control
  Viability −NC-022: 108 ± 0 % control
KMS-18 cells; LU-005 1.0 μM 1 h
  Viability +NC-002 & NC-001: 8 ± 4 % control
  Viability +NC-022: 29 ± 12 % control
  Viability −NC-022: 88 ± 16 % control
KMS-18 cells; LU-005 3.0 μM 1 h
  Viability +NC-002 & NC-001: 1 ± 0.1 % control
  Viability +NC-022: 24 ± 8 % control
  Viability −NC-022: 72 ± 2 % control
KMS-18 cells; LU-005 9.0 μM 1 h
  Viability +NC-002 & NC-001: 0.8 ± 0.2 % control
  Viability +NC-022: 17.5 ± 7.5 % control
  Viability −NC-022: 45 ± 8 % control
MM1.R cells
  Viability +NC-002 & NC-001: 26 ± 6 % control
  Viability +NC-022: 66 ± 1 % control
  Viability −NC-022: 102 ± 4 % control
NCI-H929 cells; LU-005 0.0014 μM 1 h
  Viability +NC-002 & NC-001: 50 ± 17 % control
  Viability +NC-022: 77 ± 2 % control
  Viability −NC-022: 97 ± 9 % control
NCI-H929 cells; LU-005 0.004 μM 1 h
  Viability +NC-002 & NC-001: 36 ± 14 % control
  Viability +NC-022: 69 ± 0 % control
  Viability −NC-022: 100 ± 13 % control
RPMI-8226 cells; LU-005 0.037 μM 1 h
  Viability +NC-002 & NC-001: 76 ± 3 % control
  Viability +NC-022: 104 ± 5 % control
  Viability −NC-022: 109 ± 2 % control
RPMI-8226 cells; LU-005 0.33 μM 1 h
  Viability +NC-002 & NC-001: 4.6 ± 0.7 % control
  Viability +NC-022: 31 ± 9 % control
  Viability −NC-022: 94 ± 1 % control
RPMI-8226 cells; LU-005 1.0 μM 1 h
  Viability +NC-002 & NC-001: 1 ± 0 % control
  Viability +NC-022: 6 ± 3 % control
  Viability −NC-022: 10 ± 10 % control
